From ChEMBL document CHEMBL1144195, “Synthesis and antitumor activity of C-9 epimers of the tetrahydrofuran containing acetogenin 4-deoxyannoreticuin” (2008)
Converted amounts (≈) assume the structure as drawn.

Assays:
PC-3 = test: Cytotoxicity against human PC-3 cells after 72 hrs by MTS method; format: functional; conditions: PC-3, 72 h
Jurkat = test: Cytotoxicity against human Jurkat cells after 72 hrs by MTS method; format: functional

SMILES	GI50 (PC-3) [µg/mL]	GI50 (Jurkat) [µg/mL]
CCCCCCCCCCCC[C@@H](O)[C@H]1CC[C@H]([C@H](O)CCCCC[C@H](O)CCCCCCC2=C[C@H](C)OC2=O)O1	15 (≈ 25.8 µM)	5 (≈ 8.61 µM)
CCCCCCCCCCCC[C@@H](O)[C@H]1CC[C@H]([C@H](O)CCCCC[C@@H](O)CCCCCCC2=C[C@H](C)OC2=O)O1	10 (≈ 17.2 µM)	5 (≈ 8.61 µM)
